Results taken from patent US5441948A, “1,3,4-benzotraizepin-5(4H)-one derivatives and process for the preparation thereof” (priority 1992, dated 1995).

Columns and labels:
[1] = tested on: isolated canine Purkinje fibres; assay: Intracellular electrophysiology, action potential duration (50% and 90% repolarization) in isolated canine Purkinje fibres; type: cell-based, canine (mongrel dogs)
Description: I. Intracellular electrophysiological studies on isolated canine Purkinje fibres: study of the characteristics and the duration of the action potential
Mongrel dogs of both sexes, weighing 8-22 kg, were anaesthetized with intravenously administered sodium pentobarbital, 30 mg/kg (Nembutal®).The superficial Purkinje fibres were excised from the heart and placed in plastic organ bath containing Tyrode's solution ([…] of Na^+, 4.0 mM of K^+, 133.3 mM of Cl^-, 2.0 mM of Ca^2+, 22.0 mM of HCO3 -, 0.9 mM of H2 PO4^+, 0.7 mM of Mg^2+, 5.0 mM of glucose) The perfusate (Tyrode's solution) was gassed with a mixture of 95% of O^2 and 5% of CO2. Temperature of the organ bath was 37.0°±0.5° C. pH=7.3±0.5. Purkinje fibres were incubated for 1-2 hours in order to avoid spontaneous changes in the duration of action potential, to be observed often for a short period after the preparation completed. Conventional glass microelectrode method was used to measure intracellular action potentials. The electrodes were filled with 3M KCl solution, resistance was 5-15 Mohm. Microelectrodes were connected to high input-resistance capacity-neutralizing amplifier through a Ag-AgCl connection. Another electrode was placed in the organ bath as a reference electrode. Maximum rate of depolarization (Vmax) was measured with an electronic differentiating unit. The intracellular pulses were visualized on a two-channel oscilloscope by a microcomputer in on-line mode. The following parameters were measured: resting potential, action potential amplitude, 50% and 90% repolarizations, maximum rate of depolarization. Preparations were stimulated through silver electrodes insulated with PTFE. Parameters of stimuli were rectangular pulses of 1 ms duration with an intensity of two times the threshold. The basal stimulation periods were changed between 200 and 1000 msec. [Varre et al., J. Cardiovasc. Pharmacol. 11, 251 (1988)].
The applied dose of the compounds according to the invention is 10 mg/L.
Concentration of Pinacidil: 1 mg/L
Concentration of Nicorandil: 5 mg/L
APD: action potential duration

[2] = tested on: vasopressin-induced ST elevation; assay: Inhibitory effect on the vasopressin-induced ST elevation in anaesthetized rats; type: in vivo, CFY male rats; conditions: vasopressin 3 IE/kg i.v.
Description: II. Inhibitory effect on the vasopressin-induced ST elevation in anaesthetized rats
The studies were performed in 200-250 g CFY male rats. Animals were anaesthetized with intraperitoneally administered urethane ([…]), then subjected to ECG, using limb leads. Coronary spasm, reflected by elevated ST deflection in the ECG recordings, was induced by treating the rats with 3 IE/kg of vasopressin intravenously. […] Methods. 5, 325-336 (1981)].
Dose of compounds of the invention: 1 mg/kg, i.v. except where appears

[3] = result in words, characteristic of drugs with merely K+-channel-activating activity; cited from earlier work
[4] = 5.0 mg/kg i.v. pretreatment (*)

## CN1C(=O)c2ccccc2N=C(N=C(N)N2CCCCC2)N1Cc1ccccn1 [Example 22, 2-[amino-(1-piperidinyl)-methyleneamino]-3-(2-pyridylmethyl)-4-methyl-3,4-dihydro-1,3,4-benzotriazepin-5(4H)-one]
[1]; 10 mg/L
  ADD90 Change (%): -10%
  ARD50 Change (%): -39%
  ADD90 after treatment: 219 ms
  ARD50 after treatment: 97 ms
[2]; 1 mg/kg, i.v. pretreatment
  Inhibition (%) of vasopressin-induced ST elevation: -59%

## CC(NC1=Nc2ccccc2C(=O)N(C)N1)C(C)(C)C (stereo not drawn) [Example 18, 2-(3,3-dimethyl-2-butylamino)-4-methyl-3,4-dihydro-1,3,4-benzotriazepin-5(4H)-one]
[1]; 10 mg/L
  ADD90 Change (%): -15%
  ARD50 Change (%): -29%
  ADD90 after treatment: 213 ms
  ARD50 after treatment: 111 ms

## O=C(NCCO[N+](=O)[O-])c1cccnc1 [Nicorandil, reference compound]
[1]; Nicorandil 5 mg/L
  ADD90 Change (%): -32%
  ARD50 Change (%): -41%
  ADD90 after treatment: 179 ms
  ARD50 after treatment: 107 ms
[2]; 1 mg/kg, i.v. pretreatment
  Inhibition (%) of vasopressin-induced ST elevation: -12%
[2]; [4]
  Inhibition (%) of vasopressin-induced ST elevation: -60%

## CC(NC(N)=NC1=Nc2ccccc2C(=O)N(C)N1)C(C)(C)C (stereo not drawn) [Example 17, 2-[amino-(3,3-dimethyl-2-butylamino)-methyleneamino]-4-methyl-3,4-dihydro-1,3,4-benzotriazepin-5(4H)-one]
[1]; 10 mg/L
  ADD90 Change (%): -13%
  ARD50 Change (%): -42%
  ADD90 after treatment: 221 ms
  ARD50 after treatment: 91 ms
[2]; 1 mg/kg, i.v. pretreatment
  Inhibition (%) of vasopressin-induced ST elevation: -68%

## CN1NC(N=C(N)N2CCCCC2)=Nc2ccccc2C1=O [Example 4, 2-[Amino-(1-piperidinyl)-methyleneamino]-4-methyl-3,4-dihydro-4H-1,3,4-benzotriazepin-5-one]
[1]; 10 mg/L
  ADD90 Change (%): -10%
  ARD50 Change (%): -33%
  ADD90 after treatment: 226 ms
  ARD50 after treatment: 113 ms
[2]; [4]
  Inhibition (%) of vasopressin-induced ST elevation: -36%

## CC(N/C(=N\C#N)Nc1ccncc1)C(C)(C)C (stereo not drawn) [Pinacidil, reference compound]
[1]; Pinacidil 1 mg/L
  ADD90 Change (%): -45%
  ARD50 Change (%): -61%
  ADD90 after treatment: 141 ms
  ARD50 after treatment: 71 ms
[3]
  unpleasant side-effects: tachycardia and the so-called "first dose effect"

## COc1cc(C(=O)OCCCN2C(N=C(N)N3CCCNCC3)=Nc3ccccc3C(=O)N2C)cc(OC)c1OC [Example 19, 2-[amino-(1-homopiperazinyl)-methyleneamino]-3-[3-(3,4,5-trimethoxybenzoyloxy)-1-propyl]-4-methyl-3,4-dihydro-1,3,4-benzotriazepin-5(4H)-one]
[1]; 10 mg/L
  ADD90 Change (%): -9%
  ARD50 Change (%): -25%
  ADD90 after treatment: 237 ms
  ARD50 after treatment: 121 ms
[2]; 1 mg/kg, i.v. pretreatment
  Inhibition (%) of vasopressin-induced ST elevation: -59%

## CN1C(=O)c2ccccc2N=C(NCc2cccnc2)N1CCCN1CCN(c2ccccc2)CC1 [Example 20, 2-(3-pyridylmethylamino)-3-[3-(4-phenyl-1-piperazinyl)-1-propyl]-4-methyl-3,4-dihydro-1,3,4-benzotriazepin-5 (4H)-one]
[1]; 10 mg/L
  ADD90 Change (%): -5%
  ARD50 Change (%): -42%
  ADD90 after treatment: 227 ms
  ARD50 after treatment: 79 ms
